# Measured values: PubChem BioAssay (NCI)
#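 Each compound was tested at five concentrations against cells in 96-well plates for 48 hours. The concentration for 50% growth inhibition is given as GI50. TGI: total growth inhibition.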
# Test system: MDA-MB-468 breast
# Experiment: NCI-60 cell line screen, 48 h
SMILES,GI50 [nM],TGI [nM]
COC(=O)C12CC(NC(=O)c3csc([C@@H](C[C@H](C(C)C)N(C)C(=O)[C@@H](NC(=O)[C@H]4CCCCN4C)C4CC4)OC(C)=O)n3)(C1)C2,16.9,> 16700
N#C/C(=C\c1ccc([N+](=O)[O-])s1)c1nc2cc(Cl)ccc2s1,2360,5760
NC(=O)[C@@H](CC1CC1)[C@@H](CCC(F)(F)F)C(=O)N[C@H]1N=C(c2ccccc2)c2cccc(F)c2NC1=O,> 100000,> 100000
CSc1ccc(/C(=N/N=C(N)N)c2ccccc2)cc1,451,8600
O=C(Nc1ccc(-n2ccc3c(NC(=O)c4ccccc4)ncnc32)cc1)c1cccc(C(F)(F)F)c1,4050,20400
CC(Nc1c(C#N)cnc2ccc(-c3cncc(-c4n[nH]c(=O)o4)c3)cc12)c1ccccc1 (stereo not given),1230,3660
CN1CCN(Cc2ccc(NC(=O)c3cncc(C#Cc4cnc(N)cc4C#N)c3)cc2C(F)(F)F)CC1,2010,5300
O=C1C2=C(C(=O)c3cnccc31)C1C=CC2CC1 (stereo not given),185,416
CCCCCN(CCCCC)CC(O)c1cc(Cl)ccc1OC (stereo not given),9710,23100
CCCCCCCCOC(=O)c1c(C)[nH]c(/C=C2\N=C(c3ccc[nH]3)C=C2OC)c1C,86.8,2670
CCC(C)Oc1nc2c(c(=O)n(C)c(=O)n2C)n1C (stereo not given),> 100000,> 100000
CN1CCN(CCOc2ccc(-c3cnc4c(-c5cccc(F)c5)cnn4c3)cc2)CC1,1670,3250
COC(=O)C(CCC(=O)CCl)N1C(=O)c2ccccc2C1=O (stereo not given),2110,5610
CCN(Cc1cc(F)ccc1F)c1ccc(CO)c(Cl)c1,16.4,41.1
COc1cccc(CN(C)c2ccc(CO)c(Cl)c2)c1,20.9,60
CCn1c(-c2cc3c([nH]c4ccccc43)c(-c3cccc(O)c3)n2)n[nH]c1=S,3190,15200
Cc1cc(C)c2c(n1)sc1c(N)ncnc12,19900,> 25000
C#CCNC(=S)N/N=C(\C)c1ccccn1,33.5,273
CC1CN(S(=O)(=O)c2oc(-c3ccc(Cl)cc3)nc2C#N)CC(C)O1 (stereo not given),1870,4160
Cc1ncc(C(=O)Nc2ccc(CN3CCN(C)CC3)c(C(F)(F)F)c2)cc1C#Cc1ccc(N)nc1,368,2120

SMILES,GI50 [nM],TGI [nM]
CCN1CCN(Cc2ccc(NC(=O)Nc3nc4ccc(Oc5ccnc(C(=O)NC)c5)cc4s3)cc2C(F)(F)F)CC1,1660,3200
COc1cc2ncnc(-n3ncc4cc(NC(=O)Nc5ccc(Cl)c(Cl)c5)ccc43)c2cc1OC,2170,4520
c1cc(-c2nnc(SSc3ncnc4nc[nH]c34)o2)ccn1,251,967
NCCCCC1NC(=O)C(CC(=O)O)NC(=O)CNC(=O)C(CCCN=C(N)N)NC(=O)C(N)CSSCC(C(=O)O)NC(=O)C(CC(=O)O)NC(=O)C2CCCN2C(=O)CNC1=O (stereo not given),> 100000,> 100000
C1=C/COCc2cc(ccc2OCCN2CCCC2)Nc2nccc(n2)-c2ccc(o2)COC/1,1490,3180
Cc1ccc2nc(-c3ccc(OCC(=O)N=Nc4c(O)[nH]c5ccccc45)cc3)[nH]c2c1,2090,4900
C=C/C(C)=C/C[C@]1(C)[C@H](C)[C@@H](OC(=O)CCC)[C@H](O)[C@@]23C(=C[C@H](OC)C[C@@H]12)[C@@H](OC(=O)CCC)O[C@H]3OC(C)=O,337,1240
O=C(/C=C/c1ccc(C(F)(F)F)cc1)Nc1ccc(C=C2c3ccccc3C(=O)c3ccccc32)cc1,1990,20800
COc1ccc(/C=C/C(=O)c2ccc(-n3cc(CN4CCN(c5cc6c(cc5F)c(=O)c(C(=O)O)cn6C5CC5)CC4)nn3)cc2)cc1OC,1960,5240
CN(C)CCNC(=O)c1ccc(-c2nc3ccc4[nH]ncc4c3c3c2C2CCC3C2)cc1 (stereo not given),1120,3140
CN(Cc1ccc(C(F)(F)F)cc1)CC(O)C(=O)Nc1ccc(Cl)cc1 (stereo not given),1370,2910
Cc1cc(Nc2nc(C(=O)Nc3ccccc3)nc3ccccc23)n[nH]1,9150,> 25000
CC1=C2C(=CC(C)(C)[C@@H]2O)C(=O)[C@](C)(O)C12CC2,12.9,36.2
CSc1ncc(Br)c(Sc2nc(N)nc3nc[nH]c23)n1,2360,19700
O=C(Nc1ccc(F)cc1F)c1cc(Cl)ccc1O,1640,5070
CC(C)c1nc(N(C)S(C)(=O)=O)nc(-c2ccc(F)cc2)c1/C=C/[C@@H](O)C[C@@H](O)CC(=O)O,18500,69300
NS(=O)(=O)c1ccc(N=Nc2c(O)[nH]c3ccc(C(=O)NCc4ccncc4)cc23)cc1,> 25000,> 25000
O=S1(=O)N(Cc2ccccc2)[C@@H](Cc2ccccc2)[C@H](O)[C@H](O)[C@H](Cc2ccccc2)N1Cc1ccccc1,2980,7170
CCN1CCN(c2cc(C)nc(N(CCCNc3ccnc4cc(Cl)ccc34)Cc3ccc4c(c3)OCO4)n2)CC1,1820,4250
C=C1C(=O)O[C@H]2[C@H]1CC/C(COC(=O)NCc1ccc(OC)cc1)=C\CC[C@@]1(C)O[C@@H]21,352,1750
